The values below are quoted from earlier work in patent publication US20070196481A1, “Sustained-release tablet composition” (priority 2002, published 2007).

Counter-ions that a name gives are not always drawn.

As for `CCCNC1CCc2nc(N)sc2C1` (centres unmarked) [pramipexole dihydrochloride], the solubility in water result is “about 200 mg/ml”.
As for `CCOc1ccccc1OC(c1ccccc1)C1CNCCO1` (centres unmarked) [reboxetine mesylate], the solubility in water entry is recorded as “about 250 mg/ml”.
